Experimental findings from US20020147353A1, “Novel flavonoids” (Vereniging christelijk wetenschappelijk anderwijs, priority 1999, published 2002) are described below.

Data set [1] deals with iron/ascorbate induced lipid peroxidation. In words: Lipid peroxidation (LPO) model, heat-treated hepatic microsomes, TBA reactive substances. It counts as biochemical. The conditions noted are these: rat hepatic microsomes, reaction started with 10 uM FeSO4; mean ± s.e.m., n = 3-5. The method, then:
Experiment 1: Lipid Peroxidation Model
Preparation of hepatic microsomes.
Male Wistar rats (200-220 g) obtained from Harlan Nederland B.V. (Horst, The Netherlands) were sacrificed by decapitation. Livers were removed and homogenized in ice-cold phosphate buffer (50 mM+0.1 mM EDTA, pH=7.4, 1:2 w/v). The homogenate was centrifuged at 10 000× g (20 min at 4° C.). Subsequently, the supernatant was centrifuged at 100 000× g for 60 min (4° C.). The pellet was resuspended in phosphate buffer and centrifuged again at 100 000× g (60 min, 4° C.). Finally the microsomal pellet was resuspended in phosphate buffer (2 g liver/ml) and 1 mL aliquots were stored at −80° C.
Microsomes were thawed and resuspended in ice-cold Tris-HCl buffer (50 mM, pH=7.4 at 37° C.) and washed by centrifugation. The pellet was resuspended in 2 mL 50 mM Tris-HCl buffer and heated to 100° C. for at least 2 min to remove all enzymatic factors just before resuspending and diluting it in ice-cold Tris buffer to 1.5 mg/mL.
Stock solutions of the flavonoids were freshly prepared in nitrogen-purged DMSO and nanopure water (1:1) just before use. The reaction was started by adding 10 uM freshly prepared FeSO4 in nitrogen-purged nanopure water. LPO was assayed by measuring thiobarbituric acid (TBA) reactive substances. At t=0, 5, 10, 15, 30, 45 and 60 min an 0.3 mL aliquot of the incubation was mixed with 2 mL of an ice-cold TBA-trichloroacetic acid-HCl-butylhydroxytoluene (BHT) solution to stop the reaction. After heating and centrifugation the absorbance at 535 vs 600 nm was determined. The TBA-trichloroacetic acid-HCl-butylhydroxytoluene solution was prepared by dissolving 41.6 mg TBA/10 ml trichloroacetic acid (16.8% w/v in 0.125 N HCl). To 10 ml TBA-trichloroacetic acid-HCl 1 ml BHT (1.5 mg/ml ethanol) was added.
The IC50 was determined by measuring the % LPO inhibition at several concentrations and interpolating the 50% inhibition point.

Data set [2] can be described thus: TEAC model (Trolox equivalent antioxidant capacity). Particulars: concentration of Trolox equivalent to 1 mM test compound; mean ± S.D., n = 3-5. The method, then:
A solution of 2,2′-azino-bis(3-ethylbenzthiazoline-6-sulfonic acid) (1.23 mg/mL) and azobisamidinepropane (3.96 mg/mL) in 50 mM phosphate buffer (pH=7.4) was heated at 70° C. for 20 min. The amount of ABTS radicals was measured by determination of the absorbance at 734 nm.
Stock solutions of the flavonoids were freshly prepared in nitrogen-purged DMSO and nanopure water (1:1) just before use. A calibration curve of Trolox ((+/−)-6-hydroxy-2,5,7,8-tetramethyl-chroman-2-carboxylic acid) was made in a concentration range from 0 to 20 μM. A mixture of 50 μL test compound and 950 μL ABTS^−+ solution was incubated at 37° C. for 5 min. Subsequently the absorbance at 734 nm was determined on a UV/VIS Spectrophotometer.
The antioxidant-induced decrease in absorbance is directly related to the antioxidant capacity of the compound (solution) being tested.
The Trolox equivalent antioxidant capacity (TEAC) is defined as the concentration (mM) of Trolox having an antioxidant capacity equivalent to 1 mM of the test compound.

For data set [3], the system named is isolated mouse left atrium. In words: Isolated mouse left atrium model: protection against doxorubicin-induced negative inotropy. More on the design: key: NP: No protection. The conditions noted are these: 250 μM flavonoid with 35 μM doxorubicin, electrically paced mouse left atrium. The procedure:
Experiment 3: Isolated Mouse Left Atrium Model
In order to determine the cardioprotective properties of the compounds in vitro, the protection against doxorubicin-induced negative inotropy was studied, using the isolated mouse left atrium model.
The example compounds were tested for their protective effect on the negative inotropic action of doxorubicin on the isolated mouse left atrium. The testing model has been described earlier (de Jong et al.Ress Comm Chem Pathol Pharmacol 68, 275-289 (1990). In short, left atria were isolated from male Balb/c mice (18-22 g) and stimulated with square wave pulses of 3 ms duration at a frequency of 4 Hz. Incubation with […] doxorubicin causes a decrease in inotropy of 50% (after 1 h). Atria were incubated with 35 μM doxorubicin and 250 μM flavonoid. Inotropy was measured and expressed as % basal contractile force relative to t=0.

In data set [4] the test system is OVCAR-3 cells. Description: Antitumor activity of flavonoids, SRB growth inhibition assay. It counts as cell-based. The conditions noted are these: 72 h. The procedure: Experiment 6: Antitumor Activity of Flavonoids
Next to the use of flavonoids as medicaments in free radical mediated diseases, the presence of anti-tumor activity has been reported. Quercetin is the best known example (Molnar et al. Neoplasma, 28: 11-17 (1981)). Because of the possible use of these compounds in chemotherapy, it was checked whether the compounds affected cell growth.
On day 0 cultured OVCAR-3 cells were plated at a density of 5000 cells/well. After 24 h (day 1) the example compounds were added and after incubation of 72 h at 37° C. (day 4), growth inhibitory effects were evaluated with the standard SRB (sulforhodamine B) assay (Skehan et al. J. Natl. Cancer Inst., 82: 1107-1112 (1990)).

The test system of data set [5] is doxorubicin-induced cardiotoxicity. Description: Protection against doxorubicin-induced cardiotoxicity in vivo (ST-interval in ECG, telemetry). Particulars: mice.
A further data set deals with A2780 cells. In words: Interference with antitumor activity of doxorubicin, MTT assay. It counts as cell-based. The method, then: (§1) Experiment 5: Interference with the Antitumor Activity of Doxorubicin Because of the possible use of these compounds as adjuvants in the chemotherapy, it was checked whether the compounds influenced the negative effect of doxorubicin on cell growth. […] This observation further underlined the use of these compounds as adjuvant therapy in the protection of the side effects of cytostatics. On day 0 cultured OVCAR-3, MCF-7 and A2780 cells were plated at a density of 5000 cells/well for OCAR-3 and MCF-7 and 3000 cells/well for A2780 cells. […] After incubation of 96 h at 37° C. (day 5), growth inhibitory effects were evaluated using the standard MTT assay.
On the technique in general: Tetrazolium dyes change colour on reduction, which living cells bring about.

The next data set deals with MCF-7 cells. The description is as above. It counts as cell-based. The method, then:
as §1

The test system of data set [6] is OVCAR-3 cells. Described as above. Type of data set: cell-based. The method, then: as §1
For data set [7], the system named is alloxan-induced diabetic rats. Description: Antidiabetic action in alloxan-induced diabetic rats. It counts as in vivo. Particulars: 68 mg/kg i.p. for two weeks. The procedure: In order to study the antidiabetic action of compound 9i (see FIG. 1 and the section “syntheses” above), the compound was studied in alloxan-induced diabetic rats. […] These diabetic rats were subsequently treated with compound 9i for two weeks (at 68 mg/kg, i.p.).

Data set [8] relates to guinea pigs exposed to ozone. Description: Ozone exposure model for COPD, pulmonary neutrophil influx. Particulars: 1 ppm ozone 12 h then 12 h air, 68 mg/kg i.p. It counts as in vivo. The text has this: Chronic Obstructive Pulmonary Disease is associated with oxidative stress. There are strong indications that antioxidant therapy may be beneficial in COPD ([…] et al., Am. J. Resp. Crit. Care Med. 156, 341-358 (1997)). Not only the number of exacerbations decreases, but also the progressive decrease in lung function becomes less severe under treatment with an antioxidant like N-acetylcysteine. An animal model for COPD is ozone exposure. In contrast to asthma, COPD is characterized by a neutrophil influx. […] We studied the protective effect of compound 9i in this ozone exposure model. […] To this end compound 9[…].) was given (24 h, 12 h before ozone exposure and daily during the exposure to ozone/air) to guinea pigs that were exposed to 1 ppm ozone for 12 h which was followed by 12 h of air.

The structures appear in SMILES notation.

Usually IC50 stands for the concentration needed to halve the response being measured. As a reminder, the melting point is the temperature of the solid-liquid transition. Take `COc1ccc2c(=O)cc(-c3ccc(O)c(O)c3)oc2c1` [Compound 8b, 3′,4′-dihydroxy-7-methoxyflavone]: the melting point was over 240 °C. In [1], the IC50 turned out to be 2500 ± 800 nM. In addition, in data set [2], the TEAC was 3.3 ± 0.2 mM.
Turning to `O=c1c(O)c(-c2ccc(O)c(O)c2)oc2ccccc12` [Compound 9a, 3′3,3′,4′-trihydroxyflavone], the values for the IC50 (in data set [1]; in the data set on OVCAR-3 cells [4]) were 1800 ± 1000 nM and 21000 ± 2400 nM, respectively. Besides, the TEAC in [2] is 4.5 ± 0.5 mM. The “Atrium protection (250 μM)” value in [3] is “NP^1”.
For the compound `COc1c(-c2ccc(O)c(O)c2)oc2ccccc2c1=O` [Compound 9b, 3′4′-dihydroxy-3-methoxyflavone], the IC50 in data set [1] came out at 1300 ± 700 nM; in the data set on OVCAR-3 cells [4], 2200 ± 400 nM. Moreover, the TEAC in data set [2] worked out at 4.4 ± 0.3 mM. Further, the “Atrium protection (250 μM)” value in data set [3] is recorded as “NP”.
As for `O=c1c(OCCO)c(-c2ccc(O)c(O)c2)oc2ccccc12` [Compound 9c, 3′,4′-dihydroxy-3-hydroxyethoxyflavone], the IC50 in [1] was found to be 600 ± 100 nM; with OVCAR-3 cells [4] (Homo sapiens), 44200 ± 20100 nM. Also, the TEAC in [2] stood at 4.4 ± 0.4 mM. Further, in data set [3], the “Atrium protection (250 μM)” value is “NP”.
Regarding `O=c1c(O[C@@H]2O[C@H](CO)[C@@H](O)[C@H](O)[C@H]2O)c(-c2ccc(O)c(O)c2)oc2ccccc12` [Compound 9i, 3′,4′-dihydroxy-3-glucoseflavone], the IC50 in [1] worked out at 2800 ± 900 nM. Also, in data set [2], the TEAC was 4.9 ± 0.3 mM. Besides, the “Atrium protection (250 μM)” value in data set [3] is 46%. Moreover, in [5] (68 mg/kg i.p.), the “potency as protector against doxorubicin-induced cardiotoxicity relative to monoHER” value was “at least 5 times”. Further, the “protection against doxorubicin-induced cardiotoxicity in vivo (in words)” value in [5] (9i 68 mg/kg i.p., doxorubicin 4 mg/kg i.v. weekly, 6 weeks) is reported as “significantly potent activity”. Besides, the “9i 100 μM growth %” value in the data set on A2780 cells (A2780, 100 μM, 96 h) stood at 97.7%; in the data set on MCF-7 cells (MCF-7, 100 μM, 96 h), 83.8%; with OVCAR-3 cells [6] (OVCAR-3, 100 μM, 96 h) it was 86.8%. The “glucose plasma level compared to controls” value in [7] was “decrease in glucose plasma level”. Also, the pulmonary neutrophil influx entry in data set [8] is recorded as “could be prevented”.
In the case of `COc1c(-c2ccc(O)c(O)c2)oc2cc(O)ccc2c1=O` [Compound 10b, 3-methoxy-7,3′,4′-trihydroxyflavone], the values for the IC50 (in [1]; with OVCAR-3 cells [4] (Homo sapiens)) were 1600 ± 700 nM and 15800 ± 1300 nM, respectively. The TEAC in [2] stood at 5.9 ± 0.7 mM. Moreover, the “Atrium protection (250 μM)” value in data set [3] was “NP”.
Turning to `C[N+](C)(C)CCCc1c(-c2ccc(O)c(O)c2)oc2cc(O)ccc2c1=O.[Cl-]` [Compound 10d, 3-(7,3′,4′-trihydroxyflavon-3-yl)-propyltrimethylammoniumchloride], half-maximal inhibition in data set [1] (IC50) required 3800 ± 100 nM. Also, the TEAC in [2] turned out to be 5.1 ± 0.3 mM. Besides, the “Atrium protection (250 μM)” value in data set [3] was 33%.
Turning to `COc1cccc2c1C(=O)c1c(O)c3c(c(O)c1C2=O)C[C@@](O)(C(=O)CO)C[C@@H]3O[C@H]1C[C@H](N)[C@H](O)[C@H](C)O1` [Dox, doxorubicin, reference compound], the IC50 in the data set with A2780 cells (Homo sapiens, A2780, 96 h, read-out: Dox IC50) worked out at 3.8 nM; with MCF-7 cells (Homo sapiens, MCF7, MCF-7, 96 h, read-out: Dox IC50), 4 nM; in the data set on OVCAR-3 cells [6] (Homo sapiens, OVCAR-3, 96 h, read-out: Dox IC50), 6.5 nM.
Regarding `O=c1c(O)c(-c2ccc(O)c(O)c2)oc2cc(O)cc(O)c12` [Quercetin, reference compound], the values for the IC50 (in [1]; in the data set on OVCAR-3 cells [4] (Homo sapiens)) were 9000 nM and 126000 ± 50500 nM, respectively.
In data set [1], `C[C@@H]1O[C@@H](OC[C@H]2O[C@@H](Oc3c(-c4ccc(O)c(O)c4)oc4cc(OCCO)cc(O)c4c3=O)[C@H](O)[C@@H](O)[C@@H]2O)[C@H](O)[C@H](O)[C@H]1O` [monoHER, 7-monohydroxyethylrutoside, reference compound] showed an IC50 of 12700 ± 3700 nM. The TEAC in [2] is on record as 3.0 ± 0.2 mM. Also, the “Atrium protection (250 μM)” value in [3] is 52%.
